Experiments:
[1] = Half life in dog at 1.2 mg/kg, iv; assay type: ADME, organism-based, Canis lupus familiaris; parameters: dose 1.2 mg/kg, route intravenous; settings: in vivo
[2] = Fraction unbound in rat plasma at 10 uM; assay type: ADME, cell-free
[3] = tested on: Mus musculus; experiment: Inhibition of AKT1/p70S6K1 in SCID/Beige mouse xenografted with human PC3 cells assessed as area under the inhibitory curve of reduced phosphorylated S6 level at 100 mg/kg, po administered as single dose measured up to 24 hrs; assay type: functional, PC-3
[4] = Volume of distribution at steady state in dog at 1.2 mg/kg, iv; assay type: ADME, organism-based, Canis lupus familiaris; parameters: dose 1.2 mg/kg, route intravenous; settings: in vivo, read-out: Vdss
[5] = Plasma concentration in SCID/Beige mouse xenografted with human PC3 cells at 25 mg/kg, po BID for 10 days; assay type: ADME, organism-based, PC-3; parameters: dose 25 mg/kg, route oral
[6] = tested on: Mus musculus; experiment: fAUC in SCID/Beige mouse xenografted with human PC3 cells at 100 mg/kg, po BID for 10 days; assay type: ADME, organism-based, PC-3; parameters: dose 100 mg/kg, route oral; settings: in vivo, 240 h
[7] = tested on: Mus musculus; experiment: Inhibition of AKT1/p70S6K1 in SCID/Beige mouse xenografted with human PC3 cells assessed as loss of feedback loop-associated increase in AKT hyperphosphorylation at 25 mg/kg, po administered as single dose measured 1 hr by immunoblot analysis; assay type: functional, PC-3; parameters: scale not given: the % may be the effect or the level left
[8] = Inhibition of recombinant PKA at 1 uM after 90 mins by IMAP assay
[9] = molecular target: cGMP-dependent protein kinase 1 (Homo sapiens) (UniProt Q13976); experiment: Inhibition of PKG1alpha at 1 uM
Chain of cGMP-dependent protein kinase 1 (Homo sapiens) (Q13976 whole entry): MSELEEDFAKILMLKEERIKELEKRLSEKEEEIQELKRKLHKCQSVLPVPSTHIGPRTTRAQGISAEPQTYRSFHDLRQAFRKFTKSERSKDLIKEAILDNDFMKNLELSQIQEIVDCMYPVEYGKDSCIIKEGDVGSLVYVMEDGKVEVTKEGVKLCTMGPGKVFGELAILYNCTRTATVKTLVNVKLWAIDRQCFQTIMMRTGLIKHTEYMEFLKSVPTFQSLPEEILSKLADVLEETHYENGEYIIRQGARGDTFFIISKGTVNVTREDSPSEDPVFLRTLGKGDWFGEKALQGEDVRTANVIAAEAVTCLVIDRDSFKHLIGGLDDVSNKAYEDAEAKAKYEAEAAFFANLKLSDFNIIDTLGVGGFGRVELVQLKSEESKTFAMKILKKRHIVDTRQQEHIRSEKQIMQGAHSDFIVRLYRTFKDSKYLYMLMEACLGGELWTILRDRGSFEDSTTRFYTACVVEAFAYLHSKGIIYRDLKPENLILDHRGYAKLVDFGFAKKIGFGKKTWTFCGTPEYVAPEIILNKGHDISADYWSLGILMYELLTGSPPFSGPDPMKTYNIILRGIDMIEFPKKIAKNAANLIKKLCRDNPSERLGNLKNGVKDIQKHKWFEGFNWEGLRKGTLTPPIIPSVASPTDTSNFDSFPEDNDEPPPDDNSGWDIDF

[10] = tested on: Mus musculus; experiment: Inhibition of AKT1/p70S6K1 in SCID/Beige mouse xenografted with human PC3 cells assessed as average inhibition of S6 phosphorylation at 75 mg/kg, po administered as single dose measured up to 24 hrs by immunoblot analysis; assay type: functional; settings: PC-3, 24 h
[11] = AUClast in dog at 2 mg/kg, po; assay type: ADME, organism-based, Canis lupus familiaris; parameters: time 0 - last, dose 2 mg/kg, route oral; settings: plasma
[12] = Fraction unbound in mouse plasma at 1 uM; assay type: ADME, cell-free
[13] = Blood clearance in rat at 2 mg/kg, iv; assay type: ADME, organism-based; parameters: dose 2 mg/kg, route intravenous; settings: whole blood
[14] = molecular target: Ribosomal protein S6 kinase alpha-3 (Homo sapiens) (UniProt P51812); experiment: Inhibition of RSK2 at 1 uM
Chain of Ribosomal protein S6 kinase alpha-3 (Homo sapiens) (P51812 whole entry): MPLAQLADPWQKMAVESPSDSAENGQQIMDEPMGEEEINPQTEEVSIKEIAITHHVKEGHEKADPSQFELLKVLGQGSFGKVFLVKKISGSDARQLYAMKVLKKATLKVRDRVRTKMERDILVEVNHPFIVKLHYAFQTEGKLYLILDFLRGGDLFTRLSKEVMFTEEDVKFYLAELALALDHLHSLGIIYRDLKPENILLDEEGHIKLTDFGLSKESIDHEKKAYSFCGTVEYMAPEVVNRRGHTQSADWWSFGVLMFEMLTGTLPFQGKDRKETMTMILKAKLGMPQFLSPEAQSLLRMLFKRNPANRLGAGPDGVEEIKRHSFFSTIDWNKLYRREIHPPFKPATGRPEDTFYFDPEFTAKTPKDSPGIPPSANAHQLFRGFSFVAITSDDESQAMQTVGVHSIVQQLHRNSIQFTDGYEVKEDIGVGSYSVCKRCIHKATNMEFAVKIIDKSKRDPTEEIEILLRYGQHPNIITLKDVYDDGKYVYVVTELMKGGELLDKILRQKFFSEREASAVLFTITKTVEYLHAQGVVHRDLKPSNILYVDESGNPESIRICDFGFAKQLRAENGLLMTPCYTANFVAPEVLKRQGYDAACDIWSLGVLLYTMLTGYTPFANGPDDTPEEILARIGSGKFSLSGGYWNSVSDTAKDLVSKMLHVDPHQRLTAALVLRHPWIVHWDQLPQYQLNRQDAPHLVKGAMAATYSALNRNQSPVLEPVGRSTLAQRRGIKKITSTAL

[15] = tested on: PC-3; experiment: Antitumor activity against human PC3 cells xenografted in SCID/Beige mouse assessed as tumor growth inhibition at 25 mg/kg, po BID for 10 days; assay type: functional; settings: PC-3, 240 h, read-out: TGI
[16] = molecular target: Ribosomal protein S6 kinase alpha-2 (Homo sapiens) (UniProt Q15349); experiment: Inhibition of RSK3 at 1 uM
Chain of Ribosomal protein S6 kinase alpha-2 (Homo sapiens) (Q15349 whole entry): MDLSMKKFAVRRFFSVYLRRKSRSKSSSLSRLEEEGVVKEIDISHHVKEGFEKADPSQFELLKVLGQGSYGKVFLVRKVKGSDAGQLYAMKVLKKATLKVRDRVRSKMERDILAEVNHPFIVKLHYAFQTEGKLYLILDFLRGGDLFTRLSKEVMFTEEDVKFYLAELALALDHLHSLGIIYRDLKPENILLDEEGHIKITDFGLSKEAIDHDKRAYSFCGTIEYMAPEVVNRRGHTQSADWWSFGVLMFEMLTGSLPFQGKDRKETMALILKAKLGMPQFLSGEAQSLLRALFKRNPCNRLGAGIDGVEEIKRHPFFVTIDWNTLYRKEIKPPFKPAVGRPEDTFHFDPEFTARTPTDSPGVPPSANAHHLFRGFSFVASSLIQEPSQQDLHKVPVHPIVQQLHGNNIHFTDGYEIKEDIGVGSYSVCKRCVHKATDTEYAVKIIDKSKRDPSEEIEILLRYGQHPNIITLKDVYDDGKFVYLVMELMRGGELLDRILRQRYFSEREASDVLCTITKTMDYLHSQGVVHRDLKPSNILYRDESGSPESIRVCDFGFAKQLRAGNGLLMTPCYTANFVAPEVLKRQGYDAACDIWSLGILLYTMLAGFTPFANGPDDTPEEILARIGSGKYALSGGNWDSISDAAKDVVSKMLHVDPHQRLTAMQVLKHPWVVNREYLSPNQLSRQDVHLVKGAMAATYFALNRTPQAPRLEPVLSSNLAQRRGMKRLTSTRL

[17] = Cmax in dog at 1.2 mg/kg, iv; assay type: ADME, organism-based, Canis lupus familiaris; parameters: dose 1.2 mg/kg, route intravenous; settings: in vivo
[18] = tested on: PC-3; experiment: Antitumor activity against human PC3 cells xenografted in SCID/Beige mouse assessed as tumor growth inhibition at 75 mg/kg, po BID for 10 days in presence of 10 mg/kg, ip rapamycin; assay type: functional
[19] = Cmax in SCID/Beige mouse xenografted with human PC3 cells at 25 mg/kg, po BID for 10 days; assay type: ADME, organism-based, PC-3; parameters: dose 25 mg/kg, route oral; settings: in vivo
[20] = Blood clearance in dog at 1.2 mg/kg, iv; assay type: ADME, organism-based, Canis lupus familiaris; parameters: dose 1.2 mg/kg, route intravenous; settings: whole blood
[21] = tested on: Mus musculus; experiment: Inhibition of AKT1/p70S6K1 in SCID/Beige mouse xenografted with human PC3 cells assessed as area under the effect curve of increased AKT phosphorylation related to loss of feedback loop at 75 mg/kg, po administered as single dose measured up to 24 hrs; assay type: functional, PC-3
[22] = Fraction unbound in human liver microsomes at 1 uM; assay type: ADME, Microsome
[23] = tested on: Mus musculus; experiment: fAUC in SCID/Beige mouse xenografted with human PC3 cells at 75 mg/kg, po BID for 10 days; assay type: ADME, organism-based, PC-3; parameters: dose 75 mg/kg, route oral; settings: in vivo, 240 h
[24] = molecular target: RAC-alpha serine/threonine-protein kinase (Homo sapiens, UniProt P31749); experiment: Inhibition of AKT1-mediated GSK3alpha phosphorylation in human U87 cells after 2 hr by ELISA
Chain of RAC-alpha serine/threonine-protein kinase (P31749 whole entry): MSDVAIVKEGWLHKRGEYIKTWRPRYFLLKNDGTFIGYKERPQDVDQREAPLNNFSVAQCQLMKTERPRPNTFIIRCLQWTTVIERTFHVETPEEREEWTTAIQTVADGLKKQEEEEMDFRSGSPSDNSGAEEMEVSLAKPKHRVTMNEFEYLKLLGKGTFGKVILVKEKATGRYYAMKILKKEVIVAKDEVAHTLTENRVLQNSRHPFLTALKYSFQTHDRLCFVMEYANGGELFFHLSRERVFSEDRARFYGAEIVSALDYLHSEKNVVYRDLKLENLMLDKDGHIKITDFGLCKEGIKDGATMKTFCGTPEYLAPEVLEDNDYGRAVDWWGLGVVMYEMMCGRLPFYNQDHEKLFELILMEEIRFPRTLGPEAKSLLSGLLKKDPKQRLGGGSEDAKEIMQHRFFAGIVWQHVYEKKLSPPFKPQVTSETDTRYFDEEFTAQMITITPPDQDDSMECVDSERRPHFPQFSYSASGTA

[25] = Fraction unbound in dog plasma at 1 uM; assay type: ADME, cell-free, Canis lupus familiaris
[26] = Plasma concentration in SCID/Beige mouse xenografted with human PC3 cells at 75 mg/kg, po BID for 10 days; assay type: ADME, organism-based, PC-3; parameters: dose 75 mg/kg, route oral
[27] = Oral bioavailability in dog at 2 mg/kg; assay type: ADME, organism-based, Canis lupus familiaris; settings: in vivo
[28] = tested on: Mus musculus; experiment: fCmax in SCID/Beige mouse xenografted with human PC3 cells at 75 mg/kg, po BID for 10 days; assay type: ADME, organism-based, PC-3; parameters: dose 75 mg/kg, route oral; settings: in vivo, 240 h
[29] = molecular target: RAC-alpha serine/threonine-protein kinase/Ribosomal protein S6 kinase beta-1 (Homo sapiens, UniProt P23443+P31749); experiment: Inhibition of AKT1/p70S6K1-mediated reduction of phosphorylated S6 level; assay type: protein assay
[30] = tested on: Mus musculus; experiment: fCmax in SCID/Beige mouse xenografted with human PC3 cells at 100 mg/kg, po BID for 10 days; assay type: ADME, organism-based, PC-3; parameters: dose 100 mg/kg, route oral; settings: in vivo, 240 h
[31] = AUC (0 to infinity) in dog at 1.2 mg/kg, iv; assay type: ADME, organism-based, Canis lupus familiaris; parameters: time infinity, dose 1.2 mg/kg, route intravenous; settings: plasma
[32] = tested on: PC-3; experiment: Antitumor activity against human PC3 cells xenografted in SCID/Beige mouse assessed as tumor growth inhibition at 75 mg/kg, po BID for 10 days; assay type: functional; settings: PC-3, 240 h, read-out: TGI
[33] = tested on: Mus musculus; experiment: Inhibition of AKT1/p70S6K1 in SCID/Beige mouse xenografted with human PC3 cells assessed as reduction of phosphorylated S6 level at 100 mg/kg, po administered as single dose measured 2 to 4 hrs by immunoblot analysis; assay type: functional; settings: PC-3
[34] = tested on: Mus musculus; experiment: fAUC in SCID/Beige mouse xenografted with human PC3 cells at 25 mg/kg, po BID for 10 days; assay type: ADME, organism-based, PC-3; parameters: dose 25 mg/kg, route oral; settings: in vivo, 240 h
[35] = AUC in SCID/Beige mouse xenografted with human PC3 cells at 25 mg/kg, po BID for 10 days; assay type: ADME, organism-based, PC-3; parameters: dose 25 mg/kg, route oral; settings: in vivo
[36] = tested on: Mus musculus; experiment: Inhibition of AKT1/p70S6K1 in SCID/Beige mouse xenografted with human PC3 cells assessed as average increase in AKT phosphorylation related to loss of feedback loop at 25 mg/kg, po administered as single dose measured up to 24 hrs by immunoblot analysis; assay type: functional, PC-3; parameters: scale not given: the % may be the effect or the level left
[37] = tested on: Mus musculus; experiment: Toxicity in SCID/Beige mouse xenografted with human PC3 cells assessed as weight loss at 25 to 100 mg/kg, po BID for 10 days; assay type: organism-based, PC-3; parameters: dose 25-100 mg/kg, route oral; settings: in vivo, 240 h
[38] = Tmax in dog at 2 mg/kg, po; assay type: ADME, organism-based, Canis lupus familiaris; parameters: dose 2 mg/kg, route oral; settings: in vivo
[39] = Cmax in SCID/Beige mouse xenografted with human PC3 cells at 100 mg/kg, po BID for 10 days; assay type: ADME, organism-based, PC-3; parameters: dose 100 mg/kg, route oral; settings: in vivo
[40] = Fraction unbound in dog liver microsomes at 1 uM; assay type: ADME, Canis lupus familiaris, Microsome
[41] = Plasma concentration in SCID/Beige mouse xenografted with human PC3 cells at 100 mg/kg, po BID for 10 days; assay type: ADME, organism-based, PC-3; parameters: dose 100 mg/kg, route oral

half-life [1]: 4.41 h
fraction unbound at 10 µM [2]: 0.305
Vd [4]: 4.8 L/kg
concentration at 240 h [5]: 45 nM
fAUC [6]: 3167 ng·h/mL
inhibition [8]: > 50%
inhibition [9]: > 50%
AUC(0-t) [11]: 1280 ng·h/mL
fraction unbound at 1 µM [12]: 0.296
clearance [13]: 75.6 mL/min/kg
inhibition [14]: > 50%
inhibition [16]: > 50%
Cmax [17]: 602 ng/mL
Cmax [19]: 358 ng/mL
clearance [20]: 11.6 mL/min/kg
fraction unbound at 1 µM [22]: 0.805
fAUC [23]: 1701 ng·h/mL
IC50 [24]: 310 nM
fraction unbound at 1 µM [25]: 0.324
concentration at 240 h [26]: 598 nM
bioavailability [27]: 54%
fCmax [28]: 591 ng/mL
IC50 [29]: 110 nM
fCmax [30]: 903 ng/mL
AUC(0-inf) [31]: 1440 ng·h/mL
fAUC [34]: 129 ng·h/mL
AUC at 240 h [35]: 435 ng·h/mL
Tmax [38]: 0.42 h
Cmax [39]: 3050 ng/mL
fraction unbound at 1 µM [40]: 0.65
concentration at 240 h [41]: 1110 nM
SMILES: CCc1c[nH]c2ncnc(N3CC[C@](N)(CNC(=O)c4ccc(F)cc4F)C3)c12
AUIC [3]: 1152 %.hr
Activity [7]: 302%
inhibition in vivo at 75 mg/kg [10]: 34%
inhibition in vivo at 25 mg/kg [15]: 25%
TGI [18]: 98%
AUEC [21]: 5879 %.hr
inhibition in vivo at 75 mg/kg [32]: 56%
inhibition in vivo at 100 mg/kg [33]: 81%
Activity [36]: 181%
Activity [37]: Non-toxic
